Assay results from the supplement of paper PMC10307832.

Experiments:
Assay in all cases: relative viability (nuclei count vs DMSO), 5 days (fraction); higher = more cells survive
BAM7 + Foretinib = compound: CCOC1=CC=CC=C1N=NC2=C(NN(C2=O)C3=NC(=CS3)C4=CC=CC=C4)C [BAM7] + COc1cc2c(Oc3ccc(NC(=O)C4(C(=O)Nc5ccc(F)cc5)CC4)cc3F)ccnc2cc1OCCCN1CCOCC1 [Foretinib] (partner 0.25 µM)
Procedure, shortened: (§1)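 A single step with final 0.05% Triton X-100, 1% formaldehyde and 1 ug/ml Hoechst fixed the cells and stained nuclei 5 days after treatment. Lung cancer cell lines in 1536-well plates had been treated by pin tool the day after seeding with one drug alone or a fixed anchor-drug dose plus five library-drug doses (not always all listed) in √10 steps, and nuclei were counted on 4× images. Relative viability is the ratio of nuclei in treated wells to nuclei in vehicle wells, taken as the median of duplicate plates.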

BAM7 + Lapatinib = compound: CCOC1=CC=CC=C1N=NC2=C(NN(C2=O)C3=NC(=CS3)C4=CC=CC=C4)C [BAM7] + CS(=O)(=O)CCNCc1ccc(-c2ccc3ncnc(Nc4ccc(OCc5cccc(F)c5)c(Cl)c4)c3c2)o1 [Lapatinib] (partner 2 µM)
Procedure, shortened: as §1

[1] = compound: CCn1c(-c2nonc2N)nc2c(C#CC(C)(C)O)ncc(OC[C@H]3CCCNC3)c21 + COc1cccc2cc(-c3nc([C@H]4CC[C@H](C(=O)O)CC4)n4ncnc(N)c34)[nH]c12 [OSI-027] (partner 0.5 µM)
Procedure, shortened: as §1

[2] = compound: CCn1c(-c2nonc2N)nc2c(C#CC(C)(C)O)ncc(OC[C@H]3CCCNC3)c21 + O=C(c1cc(Cc2n[nH]c(=O)c3ccccc23)ccc1F)N1CCN(C(=O)C2CC2)CC1 [Olaparib] (partner 8 µM)
Procedure, shortened: as §1

LU99A
relative viability (BAM7 + Foretinib; first compound 0.5 µM): 0.787
relative viability (BAM7 + Foretinib; first compound 5 µM): 0.888
relative viability (BAM7 + Foretinib; first compound 15.81 µM): 0.828
relative viability (BAM7 + Foretinib; first compound 50 µM): 0.843
relative viability (BAM7 + Lapatinib; first compound 0.5 µM): 0.975
relative viability (BAM7 + Lapatinib; first compound 5 µM): 0.788
relative viability (BAM7 + Lapatinib; first compound 15.81 µM): 1.09
relative viability (BAM7 + Lapatinib; first compound 50 µM): 1.03
relative viability ([1]; first compound 0.01 µM): 0.284
relative viability ([1]; first compound 0.03162 µM): 0.298
relative viability ([1]; first compound 0.1 µM): 0.283
relative viability ([1]; first compound 0.3162 µM): 0.267
relative viability ([1]; first compound 1 µM): 0.282
relative viability ([2]; first compound 0.01 µM): 0.282
relative viability ([2]; first compound 0.03162 µM): 0.312
relative viability ([2]; first compound 0.1 µM): 0.251
relative viability ([2]; first compound 0.3162 µM): 0.258
relative viability ([2]; first compound 1 µM): 0.288

LXF-289
relative viability (BAM7 + Foretinib; first compound 0.5 µM): 1.04
relative viability (BAM7 + Foretinib; first compound 5 µM): 0.968
relative viability (BAM7 + Foretinib; first compound 15.81 µM): 0.986
relative viability (BAM7 + Foretinib; first compound 50 µM): 0.961
relative viability (BAM7 + Lapatinib; first compound 0.5 µM): 0.947
relative viability (BAM7 + Lapatinib; first compound 5 µM): 0.951
relative viability (BAM7 + Lapatinib; first compound 15.81 µM): 0.913
relative viability (BAM7 + Lapatinib; first compound 50 µM): 0.851
relative viability ([1]; first compound 0.01 µM): 0.778
relative viability ([1]; first compound 0.03162 µM): 0.779
relative viability ([1]; first compound 0.1 µM): 0.808
relative viability ([1]; first compound 0.3162 µM): 0.759
relative viability ([1]; first compound 1 µM): 0.804
relative viability ([2]; first compound 0.01 µM): 1.06
relative viability ([2]; first compound 0.03162 µM): 1.1
relative viability ([2]; first compound 0.1 µM): 1.03
relative viability ([2]; first compound 0.3162 µM): 0.973
relative viability ([2]; first compound 1 µM): 1.05

NCI-H441
relative viability (BAM7 + Foretinib; first compound 0.5 µM): 1.09
relative viability (BAM7 + Foretinib; first compound 5 µM): 1.13
relative viability (BAM7 + Foretinib; first compound 15.81 µM): 0.767
relative viability (BAM7 + Foretinib; first compound 50 µM): 1.14
relative viability ([1]; first compound 0.01 µM): 0.675
relative viability ([1]; first compound 0.03162 µM): 0.67
relative viability ([1]; first compound 0.1 µM): 0.466
relative viability ([1]; first compound 0.3162 µM): 0.469
relative viability ([1]; first compound 1 µM): 0.437
relative viability ([2]; first compound 0.01 µM): 0.554
relative viability ([2]; first compound 0.03162 µM): 0.726
relative viability ([2]; first compound 0.1 µM): 0.529
relative viability ([2]; first compound 0.3162 µM): 0.551
relative viability ([2]; first compound 1 µM): 0.567

NCI-H522
relative viability ([1]; first compound 0.01 µM): 0.673
relative viability ([1]; first compound 0.03162 µM): 0.691
relative viability ([1]; first compound 0.1 µM): 0.741
relative viability ([1]; first compound 0.3162 µM): 0.634
relative viability ([1]; first compound 1 µM): 0.748
relative viability ([2]; first compound 0.01 µM): 0.622
relative viability ([2]; first compound 0.03162 µM): 0.779
relative viability ([2]; first compound 0.1 µM): 0.724
relative viability ([2]; first compound 0.3162 µM): 0.628
relative viability ([2]; first compound 1 µM): 0.581

NCI-H1299
relative viability (BAM7 + Foretinib; first compound 0.5 µM): 1.07
relative viability (BAM7 + Foretinib; first compound 5 µM): 1.18
relative viability (BAM7 + Foretinib; first compound 15.81 µM): 1.08
relative viability (BAM7 + Foretinib; first compound 50 µM): 1.11
relative viability (BAM7 + Lapatinib; first compound 0.5 µM): 0.835
relative viability (BAM7 + Lapatinib; first compound 5 µM): 1.01
relative viability (BAM7 + Lapatinib; first compound 15.81 µM): 0.954
relative viability (BAM7 + Lapatinib; first compound 50 µM): 0.964
relative viability ([2]; first compound 0.01 µM): 0.954
relative viability ([2]; first compound 0.03162 µM): 0.965
relative viability ([2]; first compound 0.1 µM): 0.936
relative viability ([2]; first compound 0.3162 µM): 0.995
relative viability ([2]; first compound 1 µM): 0.984

NCI-H1563
relative viability (BAM7 + Foretinib; first compound 0.5 µM): 0.898
relative viability (BAM7 + Foretinib; first compound 5 µM): 0.82
relative viability (BAM7 + Foretinib; first compound 15.81 µM): 0.868
relative viability (BAM7 + Foretinib; first compound 50 µM): 0.963
relative viability (BAM7 + Lapatinib; first compound 0.5 µM): 1.01
relative viability (BAM7 + Lapatinib; first compound 5 µM): 0.962
relative viability (BAM7 + Lapatinib; first compound 15.81 µM): 0.969
relative viability (BAM7 + Lapatinib; first compound 50 µM): 1.05
relative viability ([1]; first compound 0.01 µM): 0.73
relative viability ([1]; first compound 0.03162 µM): 0.783
relative viability ([1]; first compound 0.1 µM): 0.686
relative viability ([1]; first compound 0.3162 µM): 0.688
relative viability ([1]; first compound 1 µM): 0.666

NCI-H1623
relative viability (BAM7 + Foretinib; first compound 0.5 µM): 0.905
relative viability (BAM7 + Foretinib; first compound 5 µM): 0.831
relative viability (BAM7 + Foretinib; first compound 15.81 µM): 0.689
relative viability (BAM7 + Foretinib; first compound 50 µM): 0.786
relative viability ([1]; first compound 0.01 µM): 0.391
relative viability ([1]; first compound 0.03162 µM): 0.423
relative viability ([1]; first compound 0.1 µM): 0.485
relative viability ([1]; first compound 0.3162 µM): 0.438
relative viability ([1]; first compound 1 µM): 0.395

NCI-H1648
relative viability ([1]; first compound 0.03162 µM): 0.271
relative viability ([1]; first compound 0.1 µM): 0.278
relative viability ([1]; first compound 0.3162 µM): 0.265
relative viability ([1]; first compound 1 µM): 0.246
relative viability ([2]; first compound 0.01 µM): 0.937
relative viability ([2]; first compound 0.03162 µM): 0.851
relative viability ([2]; first compound 0.1 µM): 0.767
relative viability ([2]; first compound 0.3162 µM): 0.604
relative viability ([2]; first compound 1 µM): 0.567

NCI-H1703
relative viability (BAM7 + Foretinib; first compound 0.5 µM): 0.329
relative viability (BAM7 + Foretinib; first compound 5 µM): 0.42
relative viability (BAM7 + Foretinib; first compound 15.81 µM): 0.393
relative viability (BAM7 + Foretinib; first compound 50 µM): 0.326
relative viability (BAM7 + Lapatinib; first compound 0.5 µM): 1.1
relative viability (BAM7 + Lapatinib; first compound 5 µM): 1.17
relative viability (BAM7 + Lapatinib; first compound 15.81 µM): 0.936
relative viability (BAM7 + Lapatinib; first compound 50 µM): 1.2
relative viability ([2]; first compound 0.01 µM): 0.406
relative viability ([2]; first compound 0.03162 µM): 0.506
relative viability ([2]; first compound 0.1 µM): 0.468
relative viability ([2]; first compound 0.3162 µM): 0.587
relative viability ([2]; first compound 1 µM): 0.31

NCI-H1792
relative viability (BAM7 + Lapatinib; first compound 0.5 µM): 0.963
relative viability (BAM7 + Lapatinib; first compound 5 µM): 0.914
relative viability (BAM7 + Lapatinib; first compound 15.81 µM): 1.09
relative viability (BAM7 + Lapatinib; first compound 50 µM): 0.842
relative viability ([1]; first compound 0.01 µM): 0.739
relative viability ([1]; first compound 0.1 µM): 0.696
relative viability ([1]; first compound 0.3162 µM): 0.715
relative viability ([1]; first compound 1 µM): 0.842
relative viability ([2]; first compound 0.01 µM): 0.53
relative viability ([2]; first compound 0.03162 µM): 0.502
relative viability ([2]; first compound 0.1 µM): 0.473
relative viability ([2]; first compound 0.3162 µM): 0.374
relative viability ([2]; first compound 1 µM): 0.589

NCI-H2342
relative viability (BAM7 + Foretinib; first compound 0.5 µM): 1.01
relative viability (BAM7 + Foretinib; first compound 5 µM): 1.04
relative viability (BAM7 + Foretinib; first compound 15.81 µM): 0.921
relative viability (BAM7 + Foretinib; first compound 50 µM): 1.03
relative viability ([1]; first compound 0.01 µM): 0.598
relative viability ([1]; first compound 0.03162 µM): 0.617
relative viability ([1]; first compound 0.1 µM): 0.517
relative viability ([1]; first compound 0.3162 µM): 0.546
relative viability ([1]; first compound 1 µM): 0.594
relative viability ([2]; first compound 0.01 µM): 0.517
relative viability ([2]; first compound 0.03162 µM): 0.42
relative viability ([2]; first compound 0.1 µM): 0.486
relative viability ([2]; first compound 0.3162 µM): 0.482
relative viability ([2]; first compound 1 µM): 0.44

SW 900
relative viability (BAM7 + Foretinib; first compound 0.5 µM): 0.933
relative viability (BAM7 + Foretinib; first compound 5 µM): 0.755
relative viability (BAM7 + Foretinib; first compound 15.81 µM): 0.774
relative viability (BAM7 + Foretinib; first compound 50 µM): 0.863
relative viability ([1]; first compound 0.01 µM): 0.452
relative viability ([1]; first compound 0.03162 µM): 0.321
relative viability ([1]; first compound 0.1 µM): 0.507
relative viability ([1]; first compound 0.3162 µM): 0.435
relative viability ([1]; first compound 1 µM): 0.562
relative viability ([2]; first compound 0.01 µM): 0.871
relative viability ([2]; first compound 0.03162 µM): 0.853
relative viability ([2]; first compound 0.1 µM): 0.742
relative viability ([2]; first compound 0.3162 µM): 0.88
relative viability ([2]; first compound 1 µM): 0.864
